Experimental data published in patent publication US5081232A, “Complexes of TC99m radiopharmaceuticals” (priority 1987, dated 1992).

Legend:
[1] = Electrophoresis (behaviour of complex under electrophoretic conditions); format: physicochemical; conditions: Tc-99 and Tc-99m
Protocol: A 0.1 g Agarose/10 cm^3 50 mM Phosphate buffer pH 7.4 gel was run at an applied potential of 300 VV for approximately 35 mins, using bromophenol blue indicator (this indicator moves towards the […]). The resulting distribution of activity was determined using suitable equipment.

[2] = Animal biodistribution (in vivo, i.v. injection); conditions: rats; for Blood, % injected dose/organ: blood taken as 5.8% of body weight; for Muscle, % injected dose/organ: muscle taken as 43% of body weight
Protocol: 0.1 ml Tc^99m prep was injected i.v. into a lateral tail vein of 6 anaesthetised rats.
At 2 minutes and 60 minutes post injection, 3 rats were sacrificed by decapitation, bled from the neck and dissected. The following organs were removed at dissection: kidney, bladder(+urine), lung, liver, spleen, stomach, small intestine, large intestine, brain (weighed), heart (weighed), thyroid, and samples of blood (weighed) and muscle (weighed, the residual carcass and the tail (injection site). Subsequently samples were counted in an automatic twin crystal gamma counter.
Percentage biodistribution of injected material was calculated (after correction for background) for all organs using the formula: [formula]
Since only samples of muscle and blood were taken, the percentage in these tissues was calculated assuming blood and muscle to represent 5.8 and 43% of total animal weight respectively using the formula: [formula] where CF= 0.058 for blood

CC(=O)C=C(C)[O][99Tc-]([Cl])([Cl])([Cl])[N]=O [[^99 Tc(NO)Cl3 (acac)]^-, trichloro(pentan-2,4-dionato) nitrosyltechnetium(II) anion]
Stability under electrophoretic conditions [1]: decomposed under electrophoretic conditions | Brain, % injected dose/organ ([2]; 2 min p.i.): 0.10 % injected dose/organ | Heart, % injected dose/organ ([2]; 2 min p.i.): 0.56 % injected dose/organ | Heart/Blood Counts/Gram ratio ([2]; 2 min p.i.): 2.2 | Heart/Liver Counts/Gram ratio ([2]; 2 min p.i.): 2.30 | Heart/Lung Counts/Gram ratio ([2]; 2 min p.i.): 1.12 | Heart/Muscle Counts/Gram ratio ([2]; 2 min p.i.): 2.19 | Kidney + Urine, % injected dose/organ ([2]; 2 min p.i.): 1.61 % injected dose/organ | Liver + GI, % injected dose/organ ([2]; 2 min p.i.): 0.00 % injected dose/organ | Liver, % injected dose/organ ([2]; 2 min p.i.): 3.12 % injected dose/organ | Lung, % injected dose/organ ([2]; 2 min p.i.): 0.73 % injected dose/organ | Blood, % injected dose/organ ([2]; 2 min p.i.): 3.56 % injected dose/organ | Muscle, % injected dose/organ ([2]; 2 min p.i.): 27.9 % injected dose/organ | Brain, % injected dose/organ ([2]; 60 min p.i.): 0.05 % injected dose/organ | Heart, % injected dose/organ ([2]; 60 min p.i.): 0.23 % injected dose/organ | Heart/Blood Counts/Gram ratio ([2]; 60 min p.i.): 1.76 | Heart/Liver Counts/Gram ratio ([2]; 60 min p.i.): 0.39 | Heart/Lung Counts/Gram ratio ([2]; 60 min p.i.): 0.74 | Heart/Muscle Counts/Gram ratio ([2]; 60 min p.i.): 1.84 | Kidney + Urine, % injected dose/organ ([2]; 60 min p.i.): 13.55 % injected dose/organ | Liver + GI, % injected dose/organ ([2]; 60 min p.i.): 0.00 % injected dose/organ | Liver, % injected dose/organ ([2]; 60 min p.i.): 8.27 % injected dose/organ | Lung, % injected dose/organ ([2]; 60 min p.i.): 0.53 % injected dose/organ | Blood, % injected dose/organ ([2]; 60 min p.i.): 2.00 % injected dose/organ | Muscle, % injected dose/organ ([2]; 60 min p.i.): 14.37 % injected dose/organ
